Test results as given in US7314888B1, “Compounds and medicinal use thereof” (Toyama Chemical Co., Ltd., priority 1998, dated 2008).
Bridge positions count the residues as written; N and C are the ends. Peptide text beside a SMILES is read from it.

How the values were obtained:
[1] = test system: transcription factor AP-1 (nuclear extract protein prepared from HeLa cells); experiment: Activities on AP-1 binding reaction to recognition sequence (ELISA) using nuclear extract protein; settings: 100 μM; ELISA using nucleus-extracted protein
Experimental: (§1) Activities on AP-1 Binding Reaction to Recognition Sequence (ELISA)
Nuclear extract protein containing transcription factor AP-1 prepared from HeLa cells was coated on 96-well ELISA plate (100 ng/well) in Hepes buffer (20 mM Hepes-potassium hydroxide (pH 7.9), 0,5 mM ethylenediamine-tetraacetic acid, 50 mM potassium chloride, 10% glycerol). After washing, a blocking treatment was carried out with bovine serum albumin, and then used for a binding assay using nuclear extract protein.
(§2) On the basis of the above-mentioned two coated AP-1, a digoxigenin-labeled double stranded oligonucleotide (22-mer) containing an AP-1 binding sequence ([…]) which has been synthesized elsewhere was reacted in the presence and absence of a sample at room temperature for 30-60 minutes in a binding reaction solution [Hepes buffer or 25 mM tris-hydrochloric acid (pH 7.9), 0.5 mM ethylenediaminetetraacetic acid, 0.05% Nonidet P-40, 10% glycerol]. After of the reaction, unbound labeled oligonucleotide washed out with Hepes buffer solution containing 0.05% of Tween-20. Then, an anti-digoxigenin antibody labeled with peroxidase was added, and reacted with the labeled oligonucleotide bound to AP-1. After washing out the excessive antibody with Hepes buffer containing 0.05% of Tween-20, the residue was reacted for a predetermined period of time in a 100 mM citrate buffer (pH 5.0) containing hydrogen peroxide by using o-phenylenediamine as a substrate. After adding-sulfuric acid solution to each well, absorbance (492 nm) was measured. Taking the absorbance in the absence of sample as 100%, inhibition rate of sample was calculated from the absorbance in the presence of sample.

[2] = molecular target: T1, AP-1 complex (Fos/Jun peptide) (Homo sapiens, UniProt P01100+P05412); experiment: Activities on AP-1 binding reaction to recognition sequence (ELISA) using Fos/Jun peptide; settings: read-out: Inhibition rate %
T1 construct: made in house; host or cells: chemical peptide synthesis (no expression host)
T1 sequence (P01100 137-200 limits assumed): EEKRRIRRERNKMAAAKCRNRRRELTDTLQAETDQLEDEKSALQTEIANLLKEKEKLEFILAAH
T1 sequence (P05412 252-315 limits assumed): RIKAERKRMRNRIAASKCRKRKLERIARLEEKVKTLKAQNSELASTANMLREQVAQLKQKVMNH
Experimental: as §1
On the other hand, Jun peptide and N-terminal biotinylated tetraglycine Fos peptide containing a DNA-binding site [Nature, Vol. 373, Pages 257-261, 1995] were synthesized and separately dissolved in tris buffer (20 mM tris-hydrochloride (pH 7.5), 50 mM potassium chloride, 1 mM ethylenediaminetetraacetic acid, 10 mM magnesium chloride, 1 mM dithiothreitol, 0.5M guanidine hydrochloride, 30% glycerol). Equimolar quantities of both the solutions were mixed together, and the mixture was used as an AP-1 complex (Fos/Jun peptide). The AP-1 complex was added to avidin-coating 96-well ELISA plate (10 pmol/well), washed, and then blocked with bovine serum albumin. The product was used for binding assay using AP-1 complex.
as §2

For `CC(=O)NC1CSSCC(C(N)=O)NC(=O)CNC(=O)C(CC(C)C)NC(=O)C(C)NC(=O)C(CC(C)C)NC(=O)C(CO)NC(=O)C(CC(C)C)NC(=O)C(CCC(N)=O)NC(=O)CNC1=O` (stereo not shown) [3 (2)] (Ac-CGQLSLALGC-NH2; disulfide 1-10; configuration not given here), which Inhibition rate [1] is on record?
The Inhibition rate was 94%.

How did the Inhibition rate [1] turn out when `CC(=O)NC1CSSCC(C(N)=O)NC(=O)CNC(=O)C(CC(N)=O)NC(=O)C(C)NC(=O)C(CC(C)C)NC(=O)C(CC(=O)O)NC(=O)C(CC(C)C)NC(=O)C(CCC(N)=O)NC(=O)CNC1=O` (stereo not shown) [3 (4)] (Ac-CGQLDLANGC-NH2; disulfide 1-10; configuration not given here) was run?
Its Inhibition rate is 64%.

Which Inhibition rate [1] does the source give for `CC(=O)NC1CSSCC(C(N)=O)NC(=O)CNC(=O)C(CC(=O)O)NC(=O)C(C)NC(=O)C(CC(C)C)NC(=O)C(CC(=O)O)NC(=O)C(CC(C)C)NC(=O)C(CC(N)=O)NC(=O)CNC1=O` (stereo not shown) [3 (6)] (Ac-CGNLDLADGC-NH2; disulfide 1-10; configuration not given here) here?
The Inhibition rate was 42%.

`CC(=O)NC1CSSCC(C(N)=O)NC(=O)C(CC(=O)O)NC(=O)CNC(=O)C(CC(C)C)NC(=O)C(C)NC(=O)C(CC(C)C)NC(=O)C(CC(C)C)NC(=O)C(CC(N)=O)NC(=O)CNC1=O` (stereo not shown) [3 (10)] (Ac-CGNLLALGDC-NH2; disulfide 1-10; configuration not given here) was tested. Which Inhibition rate [1] did it give?
Its Inhibition rate is 76%.

Which Inhibition rate [1] does the source give for `CC(=O)NC1CSSCC(C(N)=O)NC(=O)CNC(=O)CNC(=O)C(C)NC(=O)C(CC(C)C)NC(=O)C(CC(=O)O)NC(=O)C(CC(C)C)NC(=O)C(CCC(N)=O)NC(=O)CNC1=O` (stereo not drawn) [3(3), Ac-Cys^1-Gly-Gln-Leu-Asp-Leu-Ala-Gly-Gly-Cys^10-NH2 (Cys^1-Cys^10)] (Ac-CGQLDLAGGC-NH2; disulfide 1-10; configuration not given here) here?
The Inhibition rate was 43%.

`CC(C)CC=C1CCC2(CC1)SC[C@H](C(=O)O)N2C(=O)CCC(C)C` (stereo partly drawn) [Example 4, (3S)-8-(3-methylbutylidene)-4-(4-methylpentanoyl)-1-thia-4-azaspiro[4.5]-decane-3-carboxylic acid] was tested. Which inhibition at 200 µM [2] did it give?
Its inhibition at 200 µM is 8%.

What about the inhibition at 500 µM [2] of the same compound?
Its inhibition at 500 µM is 15%.

`CC(C)COc1ccc(C(=O)c2ccc(OCC(C)C)c(CC(=O)O)c2)c(OCC(C)C)c1` [Example 7, 2-[5-(2,4-diisobutoxybenzoyl)-2-isobutoxyphenyl]acetic acid] was tested. Which inhibition at 200 µM [2] did it give?
The inhibition at 200 µM was 14%.

And the inhibition at 500 µM [2]?
Its inhibition at 500 µM is 46%.

Which results are given for `CC(C)COc1ccc(C(=O)c2ccc(OCC(C)C)c(C(=O)O)c2)c(OCC(C)C)c1` [Example 8, 5-(2,4-diisobutoxybenzoyl)-2-isobutoxybenzoic acid]?
inhibition at 200 µM [2]: 9%; inhibition at 500 µM [2]: 20%

For `CC(C)COc1ccc(C(O)c2ccc(OCC(C)C)c(CC(=O)O)c2)c(OCC(C)C)c1` (stereo not shown) [Example 9, 2-{5-[(2,4-diisobutoxyphenyl)(hydroxy)methyl]-2-isobutoxyphenyl}-acetic acid], which inhibition at 200 µM [2] is on record?
Its inhibition at 200 µM is 23%.

And the inhibition at 500 µM [2]?
Its inhibition at 500 µM is 37%.

Which results are given for `CC(C)COc1ccc(C(=O)c2ccc(OCC(C)C)c(/C=C/C(=O)O)c2)c(OCC(C)C)c1` [Example 13, 3-[5-(2,4-diisobutoxybenzoyl)-2-isobutoxyphenyl]-2-propenoic acid]?
inhibition at 200 µM [2]: 43%; inhibition at 500 µM [2]: 96%

`CC(C)COc1ccc(C(O)c2ccc(OCC(C)C)c(C=CC(=O)O)c2)c(OCC(C)C)c1` (stereo not shown) [Example 14, 3-[5-[(2,4-diisobutoxyphenyl)(hydroxy)methyl]-2-isobutoxyphenyl]-2-propenoic acid] was tested. Which inhibition at 200 µM [2] did it give?
The inhibition at 200 µM was 21%.

And the inhibition at 500 µM [2]?
The inhibition at 500 µM was 90%.

Which inhibition at 200 µM [2] does the source give for `CC(C)COc1ccc(C(O)c2ccc(OCC(C)C)c(CCC(=O)O)c2)c(OCC(C)C)c1` (stereo not shown) [Example 15, 3-{5-[(2,4-diisobutoxyphenyl)(hydroxy)methyl]-2-isobutoxyphenyl}propionic acid] here?
Its inhibition at 200 µM is 19%.

And the inhibition at 500 µM [2]?
The inhibition at 500 µM was 64%.

What does the source list for `CC(C)COc1ccc(Cc2ccc(OCC(C)C)c(CC(=O)O)c2)c(OCC(C)C)c1` [Example 16, 2-[5-(2,4-diisobutoxybenzyl)-2-isobutoxyphenyl]acetic acid]?
inhibition at 200 µM [2]: 21%; inhibition at 500 µM [2]: 65%

With `CC(C)COc1ccc(C(=O)c2ccc(OCC(C)C)c(CCC(=O)O)c2)c(O)c1` [Example 38, 3-[5-(2-hydroxy-4-isobutoxybenzoyl)-2-isobutoxyphenyl]-propanoic acid] as the compound, how does the inhibition at 200 µM [2] read?
Its inhibition at 200 µM is 18%.

What about the inhibition at 500 µM [2] of the same compound?
The inhibition at 500 µM was 91%.

`CC(C)COc1cc(OCC(C)C)cc(C(=O)c2ccc(OCC(C)C)c(CCC(=O)O)c2)c1` [Example 41, 3-[5-(3,5-diisobutoxybenzoyl)-2-isobutoxyphenyl]propanoic acid] was tested. Which inhibition at 200 µM [2] did it give?
The inhibition at 200 µM was 27%.

And the inhibition at 500 µM [2]?
The inhibition at 500 µM was 78%.

For `CC(C)COc1ccc(OCC(C)C)c(C(=O)c2ccc(OCC(C)C)c(CCC(=O)O)c2)c1` [Example 43, 3-[5-(2,5-diisobutoxybenzoyl)-2-isobutoxyphenyl]-propanoic acid], which inhibition at 200 µM [2] is on record?
The inhibition at 200 µM was 28%.

And the inhibition at 500 µM [2]?
Its inhibition at 500 µM is 72%.

How did the inhibition at 200 µM [2] turn out when `CC(C)COc1ccc(C(=O)c2ccc(OCC(C)C)c(OCC(C)C)c2)cc1CCC(=O)O` [Example 47, 3-[5-(3,4-diisobutoxybenzoyl)-2-isobutoxyphenyl]-propanoic acid] was run?
The inhibition at 200 µM was 35%.

What about the inhibition at 500 µM [2] of the same compound?
The inhibition at 500 µM was 92%.

With `CC(C)COc1ccc(C(=O)c2ccc(OCC(C)C)c(OCC(=O)O)c2)c(OCC(C)C)c1` [Example 53, 2-[5-(2,4-diisobutoxybenzoyl)-2-isobutoxyphenoxy]acetic acid] as the compound, how does the inhibition at 200 µM [2] read?
Its inhibition at 200 µM is 30%.

What about the inhibition at 500 µM [2] of the same compound?
The inhibition at 500 µM was 79%.

How did the inhibition at 200 µM [2] turn out when `CC(C)COc1ccc(C(=O)c2ccc(OCC(C)C)c(C(=O)NCC(=O)O)c2)c(OCC(C)C)c1` [Example 57, 2-{[5-(2,4-diisobutoxybenzoyl)-2-isobutoxybenzoyl]amino}-acetic acid] was run?
The inhibition at 200 µM was 13%.

And the inhibition at 500 µM [2]?
The inhibition at 500 µM was 62%.

`CC(C)COc1ccc(C(=O)c2ccc(OCC(C)C)c(CCC(=O)NS(C)(=O)=O)c2)c(OCC(C)C)c1` [Example 58, N-{3-[5-(2,4-diisobutoxybenzoyl)-2-isobutoxyphenyl]propanoyl}methanesulfonamide] was tested. Which inhibition at 200 µM [2] did it give?
Its inhibition at 200 µM is 22%.

And the inhibition at 500 µM [2]?
The inhibition at 500 µM was 88%.

How did the inhibition at 200 µM [2] turn out when `CC(C)COc1ccc(C(NS(C)(=O)=O)c2ccc(OCC(C)C)c(CCC(=O)O)c2)c(OCC(C)C)c1` (stereo not shown) [Example 73, 3-(5-{(2,4-diisobutoxyphenyl)[(methylsulfonyl)amino]methyl}-2-isobutoxyphenyl)propanoic acid] was run?
The inhibition at 200 µM was 18%.

And the inhibition at 500 µM [2]?
Its inhibition at 500 µM is 74%.

`CC(C)COc1ccc(C(=O)c2ccc3c(c2)cc(C(=O)O)n3CC(C)C)c(OCC(C)C)c1` [Example 82, 5-(2,4-diisobutoxybenzoyl)-1-isobutyl-1H-indole-2-carboxylic acid] was tested. Which inhibition at 200 µM [2] did it give?
The inhibition at 200 µM was 28%.

What about the inhibition at 500 µM [2] of the same compound?
Its inhibition at 500 µM is 97%.

For `CC(C)CCOc1ccc(C(=O)c2cc(C(=O)CC(C)C)cn2CCC(C)C)cc1CCC(=O)O` [Example 88, 3-[5-{[1-isopentyl-4-(3-methylbutanoyl)-1H-pyrrol-2-yl]carbonyl}-2-(isopentyloxy)phenyl]propanoic acid], which inhibition at 200 µM [2] is on record?
Its inhibition at 200 µM is 29%.

And the inhibition at 500 µM [2]?
Its inhibition at 500 µM is 72%.

Which results are given for `CC(C)CCOc1ccc(C(=O)c2ccc3c(c2)n(CCC(C)C)c(=O)n3CCC(C)C)cc1CC(=O)O` [Example 90, 2-[5-[(1,3-diisopentyl-2-oxo-2,3-dihydro-1H-benzimidazol-5-yl)carbonyl]-2-(isopentyloxy)phenyl]-acetic acid]?
inhibition at 200 µM [2]: 26%; inhibition at 500 µM [2]: 96%
